Experimental data published in ChEMBL document CHEMBL3301472, “MMV Malaria Box HIV and cytotoxicity screening”.

Key:
Type in all cases: toxicity, cell-based
[1] = MMV: MTT Cytotoxicity Assay Day 3 pi, U87-CD4-CCR5 cells, % cell death @ 5mM compound; conditions: human, u87-cd4-ccr5, 5000 µM
[2] = MMV: MTT Cytotoxicity Assay Day 3 pi, U87-CD4-CXCR4 cells, % cell death @ 5mM compound; conditions: human, u87-cd4-cxcr4, 5000 µM
[3] = MMV: MTT Cytotoxicity Assay Day 7 pi of Assay #6 (compound washed out Day 1 pi), U87-CD4-CCR5 cells, % cell death @ 5mM compound; conditions: human, u87-cd4-ccr5, 5000 µM
[4] = MMV: MTT Cytotoxicity Assay Day 7 pi of Assay #7 (compound washed out Day 1 pi), U87-CD4-CXCR4 cells, % cell death @ 5mM compound; conditions: human, u87-cd4-cxcr4, 5000 µM
[5] = MMV: MTT Cytotoxicity Assay Day 7 pi of Assay #10 (NO washout), U87-CD4-CCR5 cells, % cell death @ 5mM compound; conditions: human, u87-cd4-ccr5, 5000 µM
[6] = MMV: MTT Cytotoxicity Assay Day 7 pi of Assay #11 (NO washout), U87-CD4-CXCR4 cells, % cell death @ 5mM compound; conditions: human, u87-cd4-cxcr4, 5000 µM

Compound | % Cell Death [1] | % Cell Death [2] | % Cell Death [3] | % Cell Death [4] | % Cell Death [5] | % Cell Death [6]
CCn1nc(-c2ccc(C(=O)OC)cc2)nc2c(=O)n(C)c(=O)nc1-2 | 1 | 21 | 6 | -23 | -2 | 18
Cc1cc(NC(=O)c2cccc(C(F)(F)F)c2)n(-c2nc(-c3ccc4c(c3)OCO4)cs2)n1 | 40 | 17 | 16 | -18 | 9 | -57
Cc1cccc(-n2ncc3c(O)nc(-n4nc(C)cc4NC(=O)c4cc5ccccc5o4)nc32)c1 | 6 | 39 | 23 | 1 | 23 | 82
COc1cccc(Nc2nc(NCCO)c3ccccc3n2)c1.Cl | 15 | -1 | 44 | -16 | 3 | 46
O=C(NC1CCN(Cc2ccccc2)CC1)c1cc(-c2ccncc2)nc2ccc(Cl)cc12 | 13 | 31 | -18 | 8 | 2 | 58
CCC(O)c1ccc(Br)cc1NC(=O)c1cccc(Cl)c1 (centres undefined) | -44 | 11 | -24 | 28 | 6 | -37
CN(C)CCCNCc1ccc(-c2ccc(F)c(Cl)c2)o1.Cl | 20 | 27 | 16 | -17 | 8 | -24
O=c1nc(C=Cc2ccc(Br)cc2)oc2ccccc12 | 17 | 23 | -7 | 24 | 35 | -17
COc1ccc2nc(N)nc(C)c2c1 | 15 | 34 | -35 | -3 | 17 | 15
Cc1[nH]c(-c2ccc(F)cc2)cc1C(=O)NC1CCN(Cc2ccccc2)CC1 | 65 | 41 | 52 | 6 | 44 | 29
COc1cc(OC)cc(C(=O)Nc2ccc(-c3nc4ccccc4[nH]3)cc2)c1 | 47 | 63 | 59 | 55 | 115 | 116
Cc1ccc(Cl)cc1N1CCN(CCCNC(=O)C2CCN(c3nc4ccccc4[nH]3)CC2)CC1 | 86 | 6 | 31 | -32 | 91 | 57
O=C(Nc1ccc(CN2CCOCC2)cc1)c1ccc(-c2cc(Cl)ccc2Cl)o1 | -2 | 28 | -8 | -21 | 41 | 36
CCOc1ccc(C2N(C)c3ccccc3N2C)cc1 | 92 | 79 | 105 | 98 | 115 | 100
COc1cccc(C(=O)Nc2ccc(-c3nc4ccccc4[nH]3)cc2)c1 | 27 | 39 | 3 | 7 | 34 | 35
O=C(Nc1cccc(-c2nc3ccccc3[nH]2)c1)c1cccc(NC(=O)c2ccco2)c1 | -8 | 22 | 11 | -31 | 20 | -18
CCN(Cc1ccccc1)C1CCN(Cc2cc(Br)ccc2O)CC1.O=C(O)C(=O)O | -5 | 27 | 6 | 0 | 20 | -25
COc1nc(Nc2ccc(C(C)C)cc2)nc(OC)n1 | -1 | 32 | 33 | -7 | 33 | 24
CCOc1cccc(C(=O)Nc2ccc(-c3nc4ccccc4[nH]3)cc2)c1 | -33 | 46 | 8 | -23 | 6 | 65
Cc1c(C)n(Cc2ccc(F)cc2)c2ccc(C(=O)NCc3ccco3)cc12 | 106 | 95 | 78 | 18 | 146 | 103

Compound | % Cell Death [1] | % Cell Death [2] | % Cell Death [3] | % Cell Death [4] | % Cell Death [5] | % Cell Death [6]
CCOc1ccccc1NC(=O)CN1CCN(C(=O)c2ccco2)CC1 | -66 | -22 | 13 | 38 | 37 | 36
O=C(Nc1ccc(N2CCN(Cc3ccccc3)CC2)cc1)c1cccs1.O=C(O)C(F)(F)F | -2 | 55 | 4 | -26 | 124 | 28
O=C(Nc1ccc(N2CCCCC2)c(Cl)c1)c1ccc(Br)o1 | 97 | 61 | 26 | 53 | 76 | 99
Cc1ccc(Cn2c(N3CCC(C(=O)NCc4cccs4)CC3)nc3ccccc32)cc1 | 5 | 4 | 12 | 58 | 18 | 78
O=C1CC(O)(C(F)(F)C(F)(F)F)Oc2ccccc21 (centres undefined) | -14 | 32 | 4 | -15 | 17 | 35
CC(C)c1ccc(CNCC(O)c2ccccc2)cc1.Cl (centres undefined) | -53 | 29 | -1 | -18 | 14 | 3
COc1ccccc1CNC(=O)C1c2ccccc2C(=O)N(CC(C)C)C1c1cccs1 (centres undefined) | 108 | 23 | 67 | -8 | 60 | 43
OC(CNC1CCCC1)Cn1c2ccccc2c2ccccc21 (centres undefined) | 10 | 31 | 2 | -15 | 7 | -3
CC(C)OCc1cc(CN2CCN(c3cccc(Cl)c3)CC2)c(O)c2ncccc12 | 14 | 19 | 19 | -12 | 125 | 32
CCCCc1ccc(NS(=O)(=O)c2cc3c4c(c2)CCN4C(=O)CC3)cc1 | 6 | 20 | 47 | 1 | 85 | 93
CCOc1ccccc1CNC(=O)C1c2ccccc2C(=O)N(CC(C)C)C1c1cccs1 (centres undefined) | -26 | 12 | 2 | -26 | 20 | 4
Cl.OC(CNCc1ccccc1)Cn1c2ccccc2c2ccccc21 (centres undefined) | 19 | 18 | 10 | -9 | 11 | -23
Oc1c2c(nc3cc(-c4ccccc4)nn13)CCCC2 | 37 | 6 | 26 | -10 | 1 | -22
CCOC(=O)C1CCN(C(=O)CN2C(=O)c3ccccc3C2c2c[nH]c3ccccc23)CC1 (centres undefined) | 107 | 35 | 52 | 39 | 109 | 112
CCOc1ccc(CCNC(=O)c2cccs2)cc1OCC | 45 | 30 | -20 | -3 | 2 | -9
O=c1c2c([nH]c3ccccc13)CCCC2 | 9 | 33 | 7 | -18 | -11 | -44
CCCCOc1ccc(C(=O)Nc2cc(C)on2)cc1 | 54 | 31 | -17 | -14 | 4 | 33
CC1CCCCN1CCCNC(=O)c1ccc2c(c1)sc1nc(-c3ccc(F)cc3)cn12 (centres undefined) | -29 | 0 | 29 | -50 | -20 | 61
CCCCN(CCCC)S(=O)(=O)c1ccc(NC(=O)c2ccco2)cc1 | 58 | 45 | 36 | 41 | 74 | 39
